Reference: article PMC9827630, “Intra-colony venom diversity contributes to maintaining eusociality in a cooperatively breeding ant” (BMC Biology, 2023)
Where no end group is shown, it is not given here.

tested on: Candida albicans ATCC 90028; test: Antifungal growth inhibition (CO-ADD); type: cell-based; conditions: percentage growth inhibition, absorbance at 530 nm; mean ± SEM
Description: (§1) Antimicrobial and cytotoxicity assays were performed by CO-ADD (The Community for Antimicrobial Drug Discovery, Institute for Molecular Bioscience, The University of Queensland). […] Percentage growth inhibition was calculated using negative controls (media only) and positive controls (no peptide). For the hemolysis assays, human whole blood was washed three times with 3 volumes of 0.9% NaCl and then resuspended in 0.9% NaCl to a concentration of 0.5 × 10^8 cells/mL. Cells were incubated for 1 h at 37°C with or without the peptide. After incubation, plates were centrifuged at 1000 g for 10 min to pellet cells and debris and hemolysis determined by measuring the supernatant absorbance at 405 nm.

| Substance | Max response ± SEM |
| --- | --- |
| ALWDTIKKWVAKVLPLVKNALK-NH2 [Rm20a] | 8 ± 7 |

same assay, conditions: sigmoidal dose-response fit of growth inhibition, absorbance at 530 nm

| Substance | MIC [µM] |
| --- | --- |
| ALWDTIKKWVAKVLPLVKNALK-NH2 [Rm20a] | >13 |

tested on: Cryptococcus neoformans var. grubii H99; ATCC 208821; test: Antifungal growth inhibition (CO-ADD); type: cell-based; conditions: percentage growth inhibition, difference in absorbance 600 and 570 nm after resazurin, 35°C 2 h; mean ± SEM
Description: as §1

| Substance | Max response ± SEM |
| --- | --- |
| ALWDTIKKWVAKVLPLVKNALK-NH2 [Rm20a] | 88 ± 1 |

same assay, conditions: sigmoidal dose-response fit of growth inhibition, resazurin read-out

| Substance | MIC [µM] |
| --- | --- |
| ALWDTIKKWVAKVLPLVKNALK-NH2 [Rm20a] | 0.79 |

tested on: F11; test: Ion permeability F11; type: cell-based, mouse; conditions: ions listed as permeant; - = none

| Substance | ion permeability F11 |
| --- | --- |
| ALWDTIKKWVAKVLPLVKNALK-NH2 [Rm20a] | Ca2+,Na+,Th+ |

tested on: HAP1 cells; test: Cell viability assay, resazurin; type: cell-based; conditions: not given
Description: In addition to the cytotoxicity assays performed by CO-ADD, we screened the synthetic peptides for toxicity in cell viability assays using HAP1, MM96L, and HEK293T cells. peptides were reconstituted in 100% DMSO then diluted in cell media (HAP1: IMDM (Sigma Aldrich) with 10% FBS and 1% Penicillin/Streptomycin (P/S); MM96L: RPMI (Gibco) with 10% FBS, 1% P/S and 1% GlutaMAX (Gibco); HEK293T: DMEM high glucose (Gibco), with 10% FBS and 1% P/S. Trypsinized cells ([…]) were seeded in each well of a 96-well plate. 0.01 to 1000 μM peptide was added to each well after 24 h, and the cells incubated for an additional 74 h. After incubation, the medium was aspirated from each well and 150 μL of fresh medium containing a 0.002% solution of resazurin (Sigma-Aldrich) was added to the wells and incubated for 4 h at 37 °C. The absorbance was measured at 570 nm using a microplate spectrophotometer (FLUOstar Omega, BMG Labtech, Germany). Percentage cell viability at concentrations of 10 and 100 μM peptide were compared with negative control by one-way ANOVA Dunnett’s multiple comparisons test (GraphPad Prism8).

| Substance | Cytotoxicity to HAP cells |
| --- | --- |
| ALWDTIKKWVAKVLPLVKNALK-NH2 [Rm20a] | cytotoxic to HAP cells |

same assay, conditions: 10 μM peptide, n = 3 per group

| Substance | HAP cell viability |
| --- | --- |
| ALWDTIKKWVAKVLPLVKNALK-NH2 [Rm20a] | significantly reduced HAP cell viability |

tested on: Human red blood cells; test: Hemolysis assay (CO-ADD); type: cell-based; conditions: 1 h at 37°C, absorbance at 405 nm; sigmoidal dose-response fit
Description: as §1

| Substance | HC50 (concentration at 50% hemolytic activity) |
| --- | --- |
| ALWDTIKKWVAKVLPLVKNALK-NH2 [Rm20a] | >13 (HC50) uM |

tested on: Staphylococcus aureus ATCC 43300; test: Antimicrobial growth inhibition (CO-ADD); type: cell-based; conditions: percentage growth inhibition, absorbance at 600 nm; mean ± SEM
Description: as §1

| Substance | Max response ± SEM |
| --- | --- |
| ALWDTIKKWVAKVLPLVKNALK-NH2 [Rm20a] | 102 ± 2 |

same assay, conditions: sigmoidal dose-response fit of growth inhibition, absorbance at 600 nm

| Substance | MIC [µM] |
| --- | --- |
| ALWDTIKKWVAKVLPLVKNALK-NH2 [Rm20a] | 1.6 |

tested on: Klebsiella pneumoniae ATCC 700603; test: Antimicrobial growth inhibition (CO-ADD); type: cell-based; conditions: percentage growth inhibition, absorbance at 600 nm; mean ± SEM
Description: as §1

| Substance | Max response ± SEM |
| --- | --- |
| ALWDTIKKWVAKVLPLVKNALK-NH2 [Rm20a] | 71 ± 29 |

same assay, conditions: sigmoidal dose-response fit of growth inhibition, absorbance at 600 nm

| Substance | MIC [µM] |
| --- | --- |
| ALWDTIKKWVAKVLPLVKNALK-NH2 [Rm20a] | >13 |

tested on: Acinetobacter baumannii ATCC 19606; test: Antimicrobial growth inhibition (CO-ADD); type: cell-based; conditions: percentage growth inhibition, absorbance at 600 nm; mean ± SEM
Description: as §1

| Substance | Max response ± SEM |
| --- | --- |
| ALWDTIKKWVAKVLPLVKNALK-NH2 [Rm20a] | 100 ± 1 |

same assay, conditions: sigmoidal dose-response fit of growth inhibition, absorbance at 600 nm

| Substance | MIC [µM] |
| --- | --- |
| ALWDTIKKWVAKVLPLVKNALK-NH2 [Rm20a] | ≤0.10 |

same assay, conditions: summary of Table S2

| Substance | EC50 [µM] |
| --- | --- |
| ALWDTIKKWVAKVLPLVKNALK-NH2 [Rm20a] | ≤ 0.1 |

tested on: Escherichia coli ATCC 25922; test: Antimicrobial growth inhibition (CO-ADD); type: cell-based; conditions: percentage growth inhibition, absorbance at 600 nm; mean ± SEM
Description: as §1

| Substance | Max response ± SEM |
| --- | --- |
| ALWDTIKKWVAKVLPLVKNALK-NH2 [Rm20a] | 100 ± 0 |

same assay, conditions: sigmoidal dose-response fit of growth inhibition, absorbance at 600 nm

| Substance | MIC [µM] |
| --- | --- |
| ALWDTIKKWVAKVLPLVKNALK-NH2 [Rm20a] | 13 |

tested on: Pseudomonas aeruginosa ATCC 27853; test: Antimicrobial growth inhibition (CO-ADD); type: cell-based; conditions: percentage growth inhibition, absorbance at 600 nm; mean ± SEM
Description: as §1

| Substance | Max response ± SEM |
| --- | --- |
| ALWDTIKKWVAKVLPLVKNALK-NH2 [Rm20a] | 14 ± 2 |

same assay, conditions: sigmoidal dose-response fit of growth inhibition, absorbance at 600 nm

| Substance | MIC [µM] |
| --- | --- |
| ALWDTIKKWVAKVLPLVKNALK-NH2 [Rm20a] | >13 |

tested on: Human embryonic kidney cells ATCC CRL-1573; test: Cytotoxicity assay (CO-ADD), resazurin; type: cell-based; conditions: percentage growth inhibition, resazurin fluorescence, 37°C 5% CO2; mean ± SEM
Description: as §1

| Substance | Max response ± SEM |
| --- | --- |
| ALWDTIKKWVAKVLPLVKNALK-NH2 [Rm20a] | 57 ± 5 |

same assay, conditions: resazurin fluorescence; sigmoidal dose-response fit

| Substance | CC50 (concentration at 50% cytotoxicity) [µM] |
| --- | --- |
| ALWDTIKKWVAKVLPLVKNALK-NH2 [Rm20a] | 11 |

tested on: F11 (mouse neuroblastoma × rat dorsal root ganglion (DRG) neuron hybrid) cells; test: Calcium imaging of F11 cells (FLIPR); type: cell-based; conditions: increase in [Ca2+]i, max-min fluorescence over 300 s; read-out: EC50 (F11 cells, Table S2)
Description: F11 (mouse neuroblastoma × rat dorsal root ganglion (DRG) neuron hybrid) cells were cultured as previously described. Cells were maintained on Ham’s F12 media supplemented with 10 % fetal bovine serum, 100 μM hypoxanthine, 0.4 μM aminopterin, and 16 μM thymidine (Hybri-MaxTM, Sigma Aldrich). 384-well imaging plates (Corning, Lowell, MA, USA) were seeded 48 h prior to imaging resulting in 90 – 95% confluence at imaging. Cells were incubated for 30 min with Calcium 4 assay component A, as per the manufacturer’s instructions (Molecular Devices, Sunnyvale, CA) in physiological salt solution (PSS; composition in mM: 140 NaCl, 11.5 D-glucose, 5.9 KCl, 1.4 MgCl2, 1.2 NaH2PO4, 5 NaHCO3, 1.8 CaCl2, 10 HEPES) at 37°C. […] Signals were read every second for 10 s before, and 300 s after, the addition of peptides in PSS supplemented with 0.1% bovine serum albumin. All data represent mean ± SEM of a representative assay in triplicate. Fluorescence changes on peptide addition were compared to addition of negative control solution (0.1% BSA in PSS). The resulting maximum-minimum fluorescence in the 300 s period after peptide addition was recorded as the response.

| Substance | EC50 [µM] |
| --- | --- |
| ALWDTIKKWVAKVLPLVKNALK-NH2 [Rm20a] | 8.1 |

tested on: HEK; test: Ion permeability HEK; type: cell-based, Human; conditions: ions listed as permeant; - = none

| Substance | ion permeability HEK |
| --- | --- |
| ALWDTIKKWVAKVLPLVKNALK-NH2 [Rm20a] | Ca2+,Na+,Th+ |

tested on: panel of microbes; test: Antimicrobial screening, summary over the panel of microbes; type: cell-based; conditions: all microbial strains except Pseudomonas aeruginosa and Candida albicans
Description: as §1

| Substance | Growth inhibition over the microbial strains examined |
| --- | --- |
| ALWDTIKKWVAKVLPLVKNALK-NH2 [Rm20a] | complete or near-complete growth inhibition of all microbial strains |
